Assay results: patent publication US20190119332A1, “METHODS TO PURIFY AVIDIN-LIKE PROTEINS AND FUSION PROTEINS THEREOF” (THE CHILDREN'S MEDICAL CENTER CORPORATION, priority 2016, published 2019)

How the values were obtained:
streptavidin = streptavidin (Streptomyces avidinii, UniProt P22629); conditions: cited from earlier work
rhizavidin [1] = experiment: affinity column purification of rhizavidin with immobilized ligand; parameters: species or system Rhizobium etli; conditions: data not shown
Procedure: The following steps can be followed to prepare a LA-matrix for use in the methods as disclosed herein: • i. Resuspend CARBOXYLINK™ Coupling Resin (Life technologies, 20266) and aliquot 1 ml of suspended resin into an empty column, e.g., a bio-rad Econo-Pac Chromatography Column, allow resin to settle. Wash the resin with approx.20 ml of water and add 10 ml of PBS (×1) to equilibrate resin. • ii. Prepare a 100 mg/ml solution of Sulfo-NHS by dissolving 50 mg of Sulfo-NHS (N-hydroxysulfosuccinimide) in 0.5 ml of 0.1M MES buffer. • iii. Prepare a Sulfo-NHS/LA mixture by adding 0.25 ml of ethanol and 0.25 ml of 50 mg/ml LA stock solution (12.5 mg of LA) to 0.5 ml of Sulfo-NHS (100 mg/ml). • iv. To cross link the LA to the resin, dissolve 25 mg of EDC in 0.75 ml of coupling buffer and immediately add to Sulfo-NHS/LA mixture. Incubate the EDC/Sulfo-NHS/LA mixture with rotation for 30 min RT. Adjust the pH of the EDC/Sulfo-NHS/LA mixture to pH 7.0 by adding 1M Na2HPO4 (pH11) (approx. 0.5 ml of 1M Na2HPO4) • v. Resuspend the equilibrated CARBOXYLINK™ Coupling Resin with EDC/Sulfo-NHS/LA mixture and transfer everything to a 5 ml tube, incubate with rotation overnight RT. • vi. Transfer resin into an empty column, allow LA resin/LA matrix to settle. Wash resin with the following reagents in the following order; (i) 20 ml of wash buffer, (ii) 20 ml of H2O, (iii) Wash resin comprising 5 ml of 20% ethanol. Store LA resin/LA matrix in 20% ethanol until use.
The following steps can be followed in the methods as disclosed herein to purify a biotin-binding protein, e.g., rhizavidin or a rhiavidin fusion protein using a LA-matrix from a bacterial suspension expressing the rhizavidin or a rhiavidin fusion protein: • v. Collect E. coli culture by centrifugation, discard supernatant, and resuspend pelleted cells with a lysis buffer (20 mM Tris, 1M NaCl, pH8.0) containing DNase, proteinase inhibitors and 10 mM MgCl2. […] Transfer resin into an empty column after incubation and wash the LA resin with wash buffer (50% ethanol, 20 mM Tris, 1M NaCl) until no protein is detected in flow through • ix. […]

rhizavidin [2] = experiment: binding of rhizavidin to ligands assessed for affinity chromatography; parameters: species or system Rhizobium etli; conditions: for binding to rhizavidin: ligand assessed for affinity chromatography

Sequence of streptavidin (P22629 25-183): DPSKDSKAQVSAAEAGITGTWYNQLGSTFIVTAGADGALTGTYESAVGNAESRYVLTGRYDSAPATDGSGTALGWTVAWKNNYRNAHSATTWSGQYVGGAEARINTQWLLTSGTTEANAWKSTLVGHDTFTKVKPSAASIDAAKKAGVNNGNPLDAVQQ

Compound | binding to streptavidin (streptavidin) | effectiveness of column comprising the ligand at purifying rhizavidin (rhizavidin [1]) | binding to rhizavidin (rhizavidin [2]) | affinity of binding to rhizavidin (rhizavidin [2]) | affinity of rhizavidin for lipoic acid compared with polyhistadine tag for nickel (rhizavidin [2])
O=C(O)c1ccccc1N=Nc1ccc(O)cc1 [HABA, hydrooxyazobenzene-benzoic acid] | bind with high affinity | not effective | did not bind |  | 
Cc1cc(N=Nc2ccccc2C(=O)O)cc(C)c1O [dimethyl-HABA] | bind with high affinity | not effective | did not bind |  | 
O=C(O)CCCCC1CCSS1 (stereo not drawn) [lipoic acid, 1,2-dithione-3-pentanoic acid] |  | effective |  | micromolar affinity | approximately the same as histadine
